Assay results taken from patent US20240024273A1, “TOPICAL ADMINISTRATION OF 2-(DIETHYLAMINO)ETHYL 2-(4-ISOBUTYLPHENYL)PROPRIONATE FOR TREATMENT OF DISEASES” (TECHFIELDS PHARMA CO., LTD., priority 2020, published 2024).

Tested on: Mild to Moderate Osteoarthritis of the Knee
Test: Phase 2 study: WOMAC difficulty performing daily activities subscale score
Assay type: in vivo, human
Details: for Change of WOMAC Difficulty performing daily activities score from baseline (±SEM) / Percentage of improvement from baseline, WOMAC Difficulty performing daily activities score: all patients taken as active; for WOMAC Difficulty Performing Daily Activities Subscale Score, Avg.: Avg. of all patients; for WOMAC Difficulty Performing Daily Activities Subscale Score, Avg. / WOMAC Difficulty Performing Daily Activities Subscale Score: blinded; for WOMAC Difficulty Performing Daily Activities Subscale Score: individual patient
Excerpt: This is a Phase 2, multicenter, randomized, double blind (within dose), placebo controlled, parallel group, proof of concept, and dose range finding study to evaluate the efficacy, safety, and PK of 2-(diethylamino)ethyl 2-(4-isobutylphenyl)propionate hydrochloride spray in adult subjects with clinically symptomatic mild to moderate OA of the knee. For subjects with bilateral knee pain, both knees will be treated, but the most symptomatic knee (i.e., the most painful knee as measured by the Western Ontario and McMaster University Osteoarthritis Index [WOMAC® 3.1] pain subscale score at Screening) will be designated as the target knee for efficacy analyses. For subjects with unilateral knee pain, only the symptomatic (target) knee will be treated.
After a Screening Period of up to 3 weeks and radiographic evaluation of the target knee joint space, a subject will be randomly assigned to 1 of 3 treatment groups in a 1:1:1 ratio with a 2:1 ratio of active:placebo within each treatment group (ie, 2 subjects to active treatment and 1 subject to placebo): • Group A: 8.75 mg 2-(diethylamino)ethyl 2-(4-isobutylphenyl)propionate/knee (2 sprays/knee, one spray to the medial surface and one spray to the lateral surface of the knee), twice daily (BID, approximately every 12 hours; n=50) or placebo (2 sprays/knee), BID (approximately every 12 hours; n=25) for a total of 4 sprays per knee per day; • Group B: 17.5 mg 2-(diethylamino)ethyl 2-(4-isobutylphenyl)propionate/knee (4 sprays/knee, one spray to the medial surface and one spray to the lateral surface of the knee, and one spray to front and one spray to the back of the knee), BID (approximately every 12 hours; n=50) or placebo (4 sprays/knee), BID (approximately every 12 hours; n=25) for a total of 8 sprays per knee per day; • Group C: 35 mg 2-(diethylamino)ethyl 2-(4-isobutylphenyl)propionate/knee (8 sprays/knee, each spray is to be applied to a different non-overlapping area around the knee, and the areas are to be uniformly distributed around the knee), BID (approximately every 12 hours; n=50) or placebo (8 sprays/knee), BID (approximately every 12 hours; n=25) for a total of 16 sprays per knee per day.
The VAS version of the WOMAC will be used for the Primary and Secondary Efficacy Endpoints. Efficacy endpoints will be assessed at Screening and Baseline (Day 1) and at the Week 2, Week 4, Week 8, and Week 12/EOS visits.
3.9.2. Secondary Efficacy Endpoints: • 1. Change from Baseline in the WOMAC (VAS) pain subscale score for the target knee at 2, 4, and 8 weeks of treatment; • 2. Change from Baseline in the WOMAC (VAS) stiffness subscale scores for the target knee and WOMAC (VAS) functional ability subscale scores at 2, 4, 8, and 12 weeks of treatment; • 3. Change from Baseline in the overall WOMAC (VAS) score at 2, 4, 8, and 12 weeks of treatment.
The Secondary Efficacy Endpoints, change from Baseline in the WOMAC subscale scores for pain, stiffness, and functional ability, and overall WOMAC score at 2, 4, 8, and 12 weeks of treatment, will be analyzed using the same methods as for the Primary Efficacy Endpoint.
To determine this, we assumed that all patients received 2-(diethylamino)ethyl 2-(4-isobutylphenyl)propionate, active drug treatment (i.e. all patients who received 2-(diethylamino)ethyl 2-(4-isobutylphenyl)propionate or placebo treatment for 12 weeks or mixed up treatment during the 12-week treatment, as 2-(diethylamino)ethyl 2-(4-isobutylphenyl)propionate-treated). Based on this assumption, that is, to treat this trial as an open-label study and that all patients received active treatment, we conducted efficacy analysis using top-line efficacy datasets prepared by CRO and the re-analysis results are presented in the following tables (Tables 29-47). […] (William G. Bensen, Justus J. Fiechtner, James 1. McMillen, et. al. Treatment of Osteoarthritis with Celecoxib. Mayo Clin Proc, November 1999. Vol 74, 1095-1105.)

[1] = 35 mg/knee (BID), Week 8 (day 56)
[2] = 35 mg/knee (BID), Week 12 (day 84)
[3] = Middle Dose (4 spray/knee, 17.5 mg/knee) Cohort, Day 1
[4] = Middle Dose (4 spray/knee, 17.5 mg/knee) Cohort, Week 4

## CCN(CC)CCOC(=O)C(C)c1ccc(CC(C)C)cc1 (stereo not shown) [2-(diethylamino)ethyl 2-(4-isobutylphenyl)propionate]
[1]
  Percentage of improvement from baseline, WOMAC Difficulty performing daily activities score, adjusted by […] of the Testing Drug Amount: −55.1%
  Change of WOMAC Difficulty performing daily activities score from baseline (±SEM): −18.4(±2.6) mm
  Percentage of improvement from baseline, WOMAC Difficulty performing daily activities score: −32.1%
[2]
  Change of WOMAC Difficulty performing daily activities score from baseline (±SEM), adjusted by […] of the Testing Drug Amount: −35.8(±4.8) mm
  Percentage of improvement from baseline, WOMAC Difficulty performing daily activities score, adjusted by […] of the Testing Drug Amount: −62.4%
  Change of WOMAC Difficulty performing daily activities score from baseline (±SEM): −20.9(±2.8) mm
  Percentage of improvement from baseline, WOMAC Difficulty performing daily activities score: −36.4%
5 patients on second batch active drug kits
  reduction of difficulty performing daily activities WOMAC from baseline to week 12: 65.1-100%
35 mg/knee (8 spray/knee), Day 1
  WOMAC Difficulty Performing Daily Activities Subscale Score, Avg.: 57.4
35 mg/knee (8 spray/knee), Follow-up
  WOMAC Difficulty Performing Daily Activities Subscale Score, Avg.: 37.0
35 mg/knee (8 spray/knee), Week 2
  WOMAC Difficulty Performing Daily Activities Subscale Score, Avg.: 48.0
35 mg/knee (8 spray/knee), Week 4
  WOMAC Difficulty Performing Daily Activities Subscale Score, Avg.: 44.0
35 mg/knee (8 spray/knee), Week 8
  WOMAC Difficulty Performing Daily Activities Subscale Score, Avg.: 39.0
35 mg/knee (8 spray/knee), Week 12
  WOMAC Difficulty Performing Daily Activities Subscale Score, Avg.: 36.5
[3]
  WOMAC Difficulty Performing Daily Activities Subscale Score, Avg.: 63.4
  WOMAC Difficulty Performing Daily Activities Subscale Score: 64.5
Middle Dose (4 spray/knee, 17.5 mg/knee) Cohort, Follow-up
  WOMAC Difficulty Performing Daily Activities Subscale Score, Avg.: 40.3
Middle Dose (4 spray/knee, 17.5 mg/knee) Cohort, Week 2
  WOMAC Difficulty Performing Daily Activities Subscale Score, Avg.: 48.1
[4]
  WOMAC Difficulty Performing Daily Activities Subscale Score, Avg.: 42.3
  WOMAC Difficulty Performing Daily Activities Subscale Score: 66.8
Middle Dose (4 spray/knee, 17.5 mg/knee) Cohort, Week 8
  WOMAC Difficulty Performing Daily Activities Subscale Score, Avg.: 39.3
Middle Dose (4 spray/knee, 17.5 mg/knee) Cohort, Week 12
  WOMAC Difficulty Performing Daily Activities Subscale Score, Avg.: 36.5
Patient 1056, second batch active drug kits, Day 1
  WOMAC Difficulty Performing Daily Activities Subscale, WOMAC VAS Score: 39.6 mm
Patient 1056, second batch active drug kits, Follow Up
  WOMAC Difficulty Performing Daily Activities Subscale, WOMAC VAS Score: 11.6 mm
Patient 1056, second batch active drug kits, Week 2
  WOMAC Difficulty Performing Daily Activities Subscale, WOMAC VAS Score: 27.1 mm
Patient 1056, second batch active drug kits, Week 4
  WOMAC Difficulty Performing Daily Activities Subscale, WOMAC VAS Score: 24.4 mm
Patient 1056, second batch active drug kits, Week 8
  WOMAC Difficulty Performing Daily Activities Subscale, WOMAC VAS Score: 25.2 mm
Patient 1056, second batch active drug kits, Week 12
  WOMAC Difficulty Performing Daily Activities Subscale, WOMAC VAS Score: 18.1 mm
Patient 1064, second batch active drug kits, Day 1
  WOMAC Difficulty Performing Daily Activities Subscale, WOMAC VAS Score: 33.6 mm
Patient 1064, second batch active drug kits, Follow Up
  WOMAC Difficulty Performing Daily Activities Subscale, WOMAC VAS Score: 0.4 mm
Patient 1064, second batch active drug kits, Week 2
  WOMAC Difficulty Performing Daily Activities Subscale, WOMAC VAS Score: 24.4 mm
Patient 1064, second batch active drug kits, Week 4
  WOMAC Difficulty Performing Daily Activities Subscale, WOMAC VAS Score: 1.1 mm
Patient 1064, second batch active drug kits, Week 8
  WOMAC Difficulty Performing Daily Activities Subscale, WOMAC VAS Score: 0.5 mm
Patient 1064, second batch active drug kits, Week 12
  WOMAC Difficulty Performing Daily Activities Subscale, WOMAC VAS Score: 0.6 mm
Patient 1535, second batch active drug kits, Day 1
  WOMAC Difficulty Performing Daily Activities Subscale, WOMAC VAS Score: 51.6 mm
Patient 1535, second batch active drug kits, Follow Up
  WOMAC Difficulty Performing Daily Activities Subscale, WOMAC VAS Score: 0.2 mm
Patient 1535, second batch active drug kits, Week 2
  WOMAC Difficulty Performing Daily Activities Subscale, WOMAC VAS Score: 3.3 mm
Patient 1535, second batch active drug kits, Week 4
  WOMAC Difficulty Performing Daily Activities Subscale, WOMAC VAS Score: 2.8 mm
Patient 1535, second batch active drug kits, Week 8
  WOMAC Difficulty Performing Daily Activities Subscale, WOMAC VAS Score: 3.5 mm
Patient 1535, second batch active drug kits, Week 12
  WOMAC Difficulty Performing Daily Activities Subscale, WOMAC VAS Score: 0.2 mm
Patient 1539, second batch active drug kits, Day 1
  WOMAC Difficulty Performing Daily Activities Subscale, WOMAC VAS Score: 73.0 mm
Patient 1539, second batch active drug kits, Follow Up
  WOMAC Difficulty Performing Daily Activities Subscale, WOMAC VAS Score: 4.4 mm
Patient 1539, second batch active drug kits, Week 2
  WOMAC Difficulty Performing Daily Activities Subscale, WOMAC VAS Score: 47.8 mm
Patient 1539, second batch active drug kits, Week 4
  WOMAC Difficulty Performing Daily Activities Subscale, WOMAC VAS Score: 43 mm
Patient 1539, second batch active drug kits, Week 8
  WOMAC Difficulty Performing Daily Activities Subscale, WOMAC VAS Score: 5.5 mm
Patient 1539, second batch active drug kits, Week 12
  WOMAC Difficulty Performing Daily Activities Subscale, WOMAC VAS Score: 8.4 mm
Patient 9032, second batch active drug kits, Day 1
  WOMAC Difficulty Performing Daily Activities Subscale, WOMAC VAS Score: 16.4 mm
Patient 9032, second batch active drug kits, Follow Up
  WOMAC Difficulty Performing Daily Activities Subscale, WOMAC VAS Score: 2.8 mm
Patient 9032, second batch active drug kits, Week 2
  WOMAC Difficulty Performing Daily Activities Subscale, WOMAC VAS Score: 6.0 mm
Patient 9032, second batch active drug kits, Week 4
  WOMAC Difficulty Performing Daily Activities Subscale, WOMAC VAS Score: 7.1 mm
Patient 9032, second batch active drug kits, Week 8
  WOMAC Difficulty Performing Daily Activities Subscale, WOMAC VAS Score: 3.4 mm
Patient 9032, second batch active drug kits, Week 12
  WOMAC Difficulty Performing Daily Activities Subscale, WOMAC VAS Score: 2.5 mm
